Results: publication PMC6270905, “Anti-Obesity Effects of Hispidin and Alpinia zerumbet Bioactives in 3T3-L1 Adipocytes” (Molecules, 2014)
Like-named read-outs stand apart in the source and are kept apart here.

Target: T1, pancreatic lipase (Sus scrofa, UniProt P00591)
T1 construct: gene PNLIP
T1 sequence (P00591 1-450): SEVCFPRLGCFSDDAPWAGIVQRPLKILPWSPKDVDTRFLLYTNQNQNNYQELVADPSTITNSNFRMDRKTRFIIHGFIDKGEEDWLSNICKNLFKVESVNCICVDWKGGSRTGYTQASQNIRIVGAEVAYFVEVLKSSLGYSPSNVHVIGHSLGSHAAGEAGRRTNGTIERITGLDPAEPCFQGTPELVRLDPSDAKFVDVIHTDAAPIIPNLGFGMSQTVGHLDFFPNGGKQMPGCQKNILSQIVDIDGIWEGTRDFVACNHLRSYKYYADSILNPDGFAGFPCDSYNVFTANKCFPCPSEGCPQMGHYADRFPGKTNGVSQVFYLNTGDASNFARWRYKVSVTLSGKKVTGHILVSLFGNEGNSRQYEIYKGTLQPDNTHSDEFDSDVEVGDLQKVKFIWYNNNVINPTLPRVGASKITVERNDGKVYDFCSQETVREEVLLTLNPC
Assay: p-nitrophenyl butyrate hydrolysis by porcine pancreatic lipase (type II), absorbance at […] nm
Assay type: biochemical

Structure (SMILES)	IC50	IC50 (read-out: IC50 (converted))
COc1cc(CCc2ccccc2)oc(=O)c1 [DDK, dihydro-5,6-dehydrokawain]	36.5 µM	
COc1cc(/C=C/c2ccccc2)oc(=O)c1 [DK, 5,6-dehydrokawain]		326 µM
O=c1cc(O)cc(/C=C/c2ccc(O)c(O)c2)o1 [hispidin, 6-(3,4-dihydroxylstyryl)-4-hydroxy-2-pyrone]		76.4 µM
